Results reported in patent US20050202465A1, “Thymidylate synthase gene and metastasis” (The Johns Hopkins University, priority 2004, published 2005).

System: colorectal cancer metastases
Experiment: Overall survival after surgical removal of metastases in 5-FU treated colorectal cancer patients, by TYMS amplification status
Format: in vivo, human
Conditions: for Median survival after metastasis removal / Survival range after metastasis removal: previous treatment 5-FU
Experimental: Tissue samples, including normal tissues, primary tumors, and metastases were obtained from colorectal cancer patients undergoing surgery at the Johns Hopkins Hospital between 1990 and 2002. A diagnosis of colorectal cancer was established by histological examination of surgical specimens and clinical information was retrospectively retrieved from patient records. Acquisition of tissue specimens and examination of clinical records was approved by an institutional review board and was performed in accordance with HIPAA regulations. Metastatic samples were obtained from complete resections, debulking, or biopsies of metastatic lesions.
Overall survival was calculated from the date of the surgical excision of the metastasis to the date of death or last follow-up and computed by Kaplan-Meier method. Data were censored when patients were lost to follow-up.
A corollary of this idea is that such patients would fare worse than those without TYMS amplification, as post-surgical therapy of patients with metastatic cancers often involves retreatment with 5-FU plus other agents (see Introduction). To evaluate this possibility, we compared the survival of patients with metastatic lesions that had previously been treated with 5-FU, segregated according to TYMS amplification status. Although the average age, stage at initial diagnosis, and metastasis size and location were similar between patients with and without increased TYMS gene copies, the median overall survival following surgical removal of metastases among patients with TYMS gene amplification was 329 days, as compared with 1021 days for patients without TYMS amplification (Table 2, p<0.01, t-Test). […] These differences were also significant in Kaplan-Meier analyses (FIG. 4).

[1] = Group A (n = 6), TYMS amplified in metastasis
[2] = Group B (n = 21), TYMS not amplified in metastasis

## O=c1[nH]cc(F)c(=O)[nH]1 [5-FU, 5-fluorouracil]
5-FU treated patients, proportional hazard model, 95% confidence interval 1.06-11.4, p<0.05
  Relative risk of death, patients with TYMS amplification vs without: 3.5 fold
[1]
  Median survival after metastasis removal: 329 days
  Survival range after metastasis removal: (109-708 days)
[2]
  Median survival after metastasis removal: 1021 days
  Survival range after metastasis removal: (255-3790 days)
